# Laboratory results from US10259792B2, “Crystal of uracil compound” (priority 2015, dated 2019).
# Experiments:
# [1] = Blood concentration measurement test (oral administration to mice); assay type: in vivo; conditions: 0.5% HPMC suspension, 50 mg/10 mL/kg, fed Balb/cA mice, compound (1) in plasma by LC-MS/MS
# Protocol: A 0.5% HPMC dosing suspension (50 mg/10 mL/kg) of each of crystal I and crystal II was prepared. These suspensions were orally administered to mice (Balb/cA), which had been reared under feeding conditions, in a volume of 10 mL per kg body weight using an oral gavage tube. After administration, mice were returned to the mouse cage, and their conditions were checked. In the cage, water and feed were available ad libitum. At 0.5, 1, 2, 4, 6, and 8 hours after administration, mice were anesthetized with isoflurane, and 60 μL of blood was collected from the orbital venous plexus using a capillary blood collecting tube. The collected blood was ice-cooled, and centrifuged to separate plasma. The mice after blood collection were returned to the animal rearing cage, and their conditions after recovering from anesthesia were checked. After the final blood collection, the depth of isoflurane anesthesia was checked, and then the mice were euthanized by cervical dislocation.
# From the concentrations of compound (1) in plasma measured by MRM method using LC-MS/MS, AUC0-24 hr was calculated by log-linear trapezoidal method using Phoenix WinNonlin (v6.3.0), software manufactured by Pharsight.
# [2] = Solid stability test (under light exposure); assay type: physicochemical; conditions: for Change of chemical purity / Change of crystal form by powder X-ray crystallography: 1 month under light exposure; for Chemical purity, Initial value / Chemical purity, One month later: HPLC; for Chemical purity, Initial value: before storage; for Chemical purity, One month later: stored 1 month under light exposure in clear glass bottle
# Protocol: The solid stabilities of crystal I and crystal II obtained in the Examples, when stored for 1 month under light exposure, were measured under the following conditions.
# Storage condition: Sample was placed in a transparent glass bottle, then the lid was placed, and the grove between the lid and the bottle was sealed by the grafting tape.
# Measurement point: 1 Month
# Stored amount: About 30 mg
# Storage container: Clear glass bottle
# Chemical purity of compound (1) in the sample solution was measured by HPLC analysis. The apparatuses, including the apparatus for data processing, were handled according to the processes and procedures instructed for the apparatuses. (Apparatus: Shimadzu Corporation LC-20AB)
# Column: L-column 2 ODS manufactured by Chemicals Evaluation and Research Institute, 4.6×150 mm, 5 μm
# Column temperature: 50° C.
# Column flow rate: 1.0 mL/min
# Mobile phase: A; Water, B; Acetonitrile
# Sample concentration: 1.0 mg/mL
SMILES,AUC0-24 hr [1] [µM·h],Change of chemical purity [2],Change of crystal form by powder X-ray crystallography [2],"Chemical purity, Initial value [2] [%]","Chemical purity, One month later [2] [%]","AUC(0-t) ([1]; Balb/cA, mouse, plasma, po, 50 mg/kg, read-out: AUC0-24 hr) [µM·h]"
"C[C@@H](NS(=O)(=O)CCCOCn1ccc(=O)[nH]c1=O)c1cccc(OC2CCCC2)c1 [Crystal II, (R)—N-(1-(3-(cyclopentyloxy)phenyl)ethyl)-3-((2,4-dioxo-3,4-dihydropyrimidin-1(2H)-yl)methoxy)propane-1-sulfonamide]",144.51,did not change,no change of crystal form,99.0,99.1,
"C[C@@H](NS(=O)(=O)CCCOCn1ccc(=O)[nH]c1=O)c1cccc(OC2CCCC2)c1 [Crystal I, (R)—N-(1-(3-(cyclopentyloxy)phenyl)ethyl)-3-((2,4-dioxo-3,4-dihydropyrimidin-1(2H)-yl)methoxy)propane-1-sulfonamide]",,did not change,no change of crystal form,97.8,97.4,122
